Results: patent US10806793B2, “Mucosal delivery of therapeutic molecules, proteins, or particles coupled to ceramide lipids” (Children's Medical Center Corporation, priority 2008, dated 2020)

What was measured:
[1] = tested on: C12-GM1 transport to the TGN; assay: Brefeldin effect on C12-GM1 transport; type: cell-based
[2] = Orskov et al., 1993; cited from earlier work

Compound | effect on C12-GM1 transport to the TGN [1] | potency in vivo [2]
C[C@H]1CCC/C=C/[C@@H]2C[C@H](O)C[C@H]2[C@H](O)/C=C/C(=O)O1 [Brefeldin-1] | inhibits C12-GM1 transport to the TGN | –
GLP1(7-36)amide: secreted form of GLP1 in which the carboxylic acid of Arg at position 36 has been amidated | – | equally potent
GLP1(7-37): secreted form of GLP1 that contains a C-terminal Gly residue | – | equally potent
